Results taken from patent US10273248B2, “Glucose uptake inhibitors” (Kadmon Corporation LLC, priority 2015, dated 2019).
Structures can show the parent of a compound that is named as a salt.

Test system: glycolysis in HT1080 cells
Experiment: Glycolysis assay: oligomycin plus compound, cellular ATP by Cell Titer Glo
Format: cell-based
Conditions: Homo sapiens, HT-1080, 1 h, 10 μM oligomycin, one hour, class symbols
In short: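 Confluent HT1080 cells treated 1 h with compound plus 10 μM oligomycin to block mitochondrial ATP, so remaining ATP reflects glycolysis. Cellular ATP read by Cell Titer-Glo luminescence; IC50 derived from dose-response curves.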

`COc1cncc(C(=O)Nc2cccc(-c3nc4c(c(Nc5ccc(-c6cn[nH]c6)cc5)n3)COC4)c2)c1` [Example 80, N-(3-(4-((4-(1H-pyrazol-4-yl)phenyl)amino)-5,7-dihydrofuro[3,4-d]pyrimidin-2-yl)phenyl)-5-methoxynicotinamide] and `Cc1cncc(C(=O)Nc2cccc(-c3nc4c(c(Nc5ccc(-c6cn[nH]c6)cc5)n3)COC4)c2)c1` [Example 73, N-(3-(4-((4-(1H-pyrazol-4-yl)phenyl)amino)-5,7-dihydrofuro[3,4-d]pyrimidin-2-yl)phenyl)-5-methylnicotinamide] fall in the same range of IC50: 10 to 100 nM for the first, 10 to 100 nM for the second.

`CC(C)C(=O)N1CCc2nc(-c3cccc(OCC(=O)NC4CCC4)c3)nc(Nc3ccc(-c4cn[nH]c4)cc3)c2C1` [Example 152, 2-(3-(4-((4-(1H-pyrazol-4-yl)phenyl)amino)-6-isobutyryl-5,6,7,8-tetrahydropyrido[4,3-d]pyrimidin-2-yl)phenoxy)-N-cyclobutylacetamide] and `CC(C)CNC(=O)COc1cccc(-c2nc3c(c(Nc4ccc(-c5cn[nH]c5)cc4)n2)CN(C(=O)C(C)C)CC3)c1` [Example 154, 2-(3-(4-((4-(1H-pyrazol-4-yl)phenyl)amino)-6-isobutyryl-5,6,7,8-tetrahydropyrido[4,3-d]pyrimidin-2-yl)phenoxy)-N-isobutylacetamide] fall in the same range of IC50: 10 to 100 nM for the first, 10 to 100 nM for the second.

`CC(C)NC(=O)COc1cc(F)cc(-c2nc(Nc3ccc(-c4cn[nH]c4)cc3)c3ncn(C)c3n2)c1` [Example 36] and `CC(C)NC(=O)COc1cccc(-c2nc(Nc3ccc(-c4cn[nH]c4)cc3)c3c(cnn3C)n2)c1` [Example 58, 2-(3-(7-((4-(1H-pyrazol-4-yl)phenyl)amino)-1-methyl-1H-pyrazolo[4,3-d]pyrimidin-5-yl)phenoxy)-N-isopropylacetamide] cannot be ordered by IC50: > 1000 nM for the first, > 1000 nM for the second.

First: Clc1cncc(CNc2cccc(-c3nc4c(c(Nc5ccc(-c6cn[nH]c6)cc5)n3)COC4)c2)c1 [Example 93, N-(4-(1H-pyrazol-4-yl)phenyl)-2-(3-(((5-chloropyridin-3-yl)methyl)amino)phenyl)-5,7-dihydrofuro[3,4-d]pyrimidin-4-amine]
Second: O=C(Nc1cccc(-c2nc3c(c(Nc4ccc(-c5cn[nH]c5)cc4)n2)COC3)c1)c1cncc(Cl)c1 [Example 69, N-(3-(4-((4-(1H-pyrazol-4-yl)phenyl)amino)-5,7-dihydrofuro[3,4-d]pyrimidin-2-yl)phenyl)-5-chloronicotinamide]
The IC50 of the first is higher: 501 to 1000 nM for the first, 10 to 100 nM for the second. The second is the more potent here.

First: O=C(COc1cccc(-c2nc(Nc3ccc(-c4cn[nH]c4)cc3)c3sccc3n2)c1)NC1CC(F)(F)C1 [Example 179, 2-(3-(4-((4-(1H-pyrazol-4-yl)phenyl)amino)thieno[3,2-d]pyrimidin-2-yl)phenoxy)-N-(3,3-difluorocyclobutyl)acetamide]
Second: O=C(COc1cccc(-c2nc(Nc3ccc(-c4cn[nH]c4)cc3)c3sccc3n2)c1)NC1CCCCC1 [Example 180, 2-(3-(4-((4-(1H-pyrazol-4-yl)phenyl)amino)thieno[3,2-d]pyrimidin-2-yl)phenoxy)-N-cyclohexylacetamide]
The IC50 of the first is higher: 251 to 500 nM for the first, 101 to 250 nM for the second. The second is the more potent here.

`CC(=O)N1CCc2nc(-c3cccc(OCC(=O)NC(C)C)c3)nc(Nc3ccc(-c4cn[nH]c4)cc3)c2C1` [Example 112, 2-(3-(4-((4-(1H-pyrazol-4-yl)phenyl)amino)-6-acetyl-5,6,7,8-tetrahydropyrido[4,3-d]pyrimidin-2-yl)phenoxy)-N-isopropylacetamide] and `CN1CCc2nc(-c3cccc(OCC(=O)NCC(C)(C)C)c3)nc(Nc3ccc(-c4cn[nH]c4)cc3)c2C1` [Example 168, 2-(3-(4-((4-(1H-pyrazol-4-yl)phenyl)amino)-6-methyl-5,6,7,8-tetrahydropyrido[4,3-d]pyrimidin-2-yl)phenoxy)-N-neopentylacetamide] fall in the same range of IC50: 101 to 250 nM for the first, 101 to 250 nM for the second.

Compared with `O=C(COc1cccc(-c2nc(Nc3ccc(-c4cn[nH]c4)cc3)c3ccncc3n2)c1)NC1CCCCC1` [Example 138, 2-(3-(4-((4-(1H-pyrazol-4-yl)phenyl)amino)pyrido[3,4-d]pyrimidin-2-yl)phenoxy)-N-cyclohexylacetamide dihydrochloride], `O=C(COc1cccc(-c2nc3c(c(Nc4ccc(-c5cn[nH]c5)cc4)n2)CSC3)c1)NC1CCCC1` [Example 87, 2-(3-(4-((4-(1H-pyrazol-4-yl)phenyl)amino)-5,7-dihydrothieno[3,4-d]pyrimidin-2-yl)phenoxy)-N-cyclopentylacetamide] is higher in IC50: 10 to 100 nM for the first, 101 to 250 nM for the second.

First: O=C(COc1cccc(-c2nc3c(c(Nc4ccc(-c5cn[nH]c5)cc4)n2)COCC3)c1)NC1CCCC1 [Example 108, 2-(3-(4-((4-(1H-pyrazol-4-yl)phenyl)amino)-7,8-dihydro-5H-pyrano[4,3-d]pyrimidin-2-yl)phenoxy)-N-cyclopentylacetamide]
Second: CCN1CCc2nc(-c3cccc(OCC(=O)NC4CCCC4)c3)nc(Nc3ccc(-c4cn[nH]c4)cc3)c2C1 [Example 125, 2-(3-(4-((4-(1H-pyrazol-4-yl)phenyl)amino)-6-ethyl-5,6,7,8-tetrahydropyrido[4,3-d]pyrimidin-2-yl)phenoxy)-N-cyclopentylacetamide]
The IC50 of the first is lower: 10 to 100 nM for the first, 101 to 250 nM for the second.

Compared with `CCC(C)NC(=O)COc1cccc(-c2nc3c(c(Nc4ccc(-c5cn[nH]c5)cc4)n2)COC3)c1` (centres unmarked) [Example 77, 2-(3-(4-((4-(1H-pyrazol-4-yl)phenyl)amino)-5,7-dihydrofuro[3,4-d]pyrimidin-2-yl)phenoxy)-N-(sec-butyl)acetamide], `O=C(COc1cccc(-c2nc3c(c(Nc4ccc(-c5cn[nH]c5)cc4)n2)COC3)c1)N1CCOCC1` [Example 37, 2-(3-(4-((4-(1H-pyrazol-4-yl)phenyl)amino)-5,7-dihydrofuro[3,4-d]pyrimidin-2-yl)phenoxy)-1-morpholinoethan-1-one] is higher in IC50: 10 to 100 nM for the first, > 1000 nM for the second. The first is the more potent here.

Compared with `O=C(COc1cccc(-c2nc3c(c(Nc4ccc(-c5cn[nH]c5)cc4)n2)CSC3)c1)NC1CCC1` [Example 86, 2-(3-(4-((4-(1H-pyrazol-4-yl)phenyl)amino)-5,7-dihydrothieno[3,4-d]pyrimidin-2-yl)phenoxy)-N-cyclobutylacetamide], `CC(C)NC(=O)COc1cccc(-c2nc(Nc3ccc(-c4cn[nH]c4)cc3)c3occc3n2)c1` [Example 3, 2-(3-(4-((4-(1H-pyrazol-4-yl)phenyl)amino)furo[3,2-d]pyrimidin-2-yl)phenoxy)-N-isopropylacetamide] is higher in IC50: 101 to 250 nM for the first, 251 to 500 nM for the second. The first is the more potent here.

Compared with `CC(C)CNC(=O)COc1cccc(-c2nc(Nc3ccc(-c4cn[nH]c4)cc3)c3ncccc3n2)c1` [Example 53, 2-(3-(4-((4-(1H-pyrazol-4-yl)phenyl)amino)pyrido[3,2-d]pyrimidin-2-yl)phenoxy)-N-isobutylacetamide], `O=C(Nc1cccc(-c2nc3c(c(Nc4ccc(-c5cn[nH]c5)cc4)n2)COC3)c1)c1ccncc1` [Example 175, N-(3-(4-((4-(1H-pyrazol-4-yl)phenyl)amino)-5,7-dihydrofuro[3,4-d]pyrimidin-2-yl)phenyl)isonicotinamide] is higher in IC50: 101 to 250 nM for the first, 501 to 1000 nM for the second. The first is the more potent here.

Same assay, conditions: one hour, alone

In the case of `CC[C@H]1/C=C/C=C/C[C@@H](C)[C@H](O)[C@@](C)(O)C(=O)[C@@H](C)[C@H](O)[C@@H](C)C(=O)[C@@H](C)[C@H](O)[C@@H](C)/C=C/C(=O)O[C@@H]2[C@H](C)[C@H](CC1)O[C@]1(CC[C@H](C)[C@H](C[C@@H](C)O)O1)[C@H]2C` [oligomycin, Oligomycin, reference compound], the “cellular ATP levels, agent alone” value is reported as “neither oligomycin alone nor control GLUT1 inhibitors substantially decrease cellular ATP levels”.
